Reference: US10472677B2, “Translational dysfunction based therapeutics” (Translational Therapeutics, Inc., priority 2005, dated 2019)

Experiments:
[1] = tested on: cyclin D1 mRNA transport in NIH 3T3 cells; test: nucleocytoplasmic mRNA transport, fractionation with Northern / quantitative PCR; type: cell-based, mouse
Method: Cells were washed twice with PBS and lysed by slow pipetting in 0.14 M NaCl/10 mM Tris.HCl (pH 8.4)/1.5 mM MgCl2/0.5% (vol/vol) Nonidet P-40/1 mM DTT/100 units/ml RNasin (Promega) at 4° C. Lysed suspensions were centrifuged at 1,000×g for 3 min at 4° C., and the supernatant was saved as the cytoplasmic fraction. Nuclear pellets were resuspended in lysis buffer, and 1/10th volume of 3.3% (wt/vol) sodium deoxycholate and 6.6% (vol/vol) Tween 40 was added under slow vortexing, and incubated at 4° C. for 5 min. Nuclei were sedimented by centrifugation at 1,000×g for 3 min at 4° C., and the supernatant (postnuclear fraction) was added to the cytoplasmic fraction. This yielded intact nuclei, as observed by using light microscopy, with no significant cytoplasmic contamination, as evaluated using tRNA^Lys and β-actin contents. Fractionated cytoplasm was free of nuclear contamination, as indicated by absence of U6 snRNA and Sc35.
RNA from whole cells or nuclear and cytoplasmic fractions was extracted by using Trizol according to manufacturer's instructions (GIBCO). Isolated RNAs were treated with RNase-free DNase I (Promega) and 5-1 μg aliquots were resolved on 1% formaldehydeagarose gel and transferred to a positively charged nylon membrane (Roche, Nutley, N.J.). Membranes were prehybridized in ULTRAhyb buffer (Ambion) and probed with 20 μM cyclin D1 cDNA probe, 5 μM β-actin cDNA probe, 30 μM biotinylated tRNA^Lys antisense oligo probe, and 30 μM biotinylated U6 small nuclear RNA antisense oligo probe. cDNA probes were biotinylated by using BrightStar psoralen-biotin and observed by using CDP Star chemiluminescence according to the manufacturer's instructions (Ambion). Band intensity and film response were quantified by using NIH IMAGE.
Cell pellets (500 mg) were homogenized in 1 ml of ice cold lysis buffer (20 mM Hepes/10 mM magnesium acetate/100 mM potassium acetate, pH 7.5) supplemented with protease inhibitors (EDTA-free Complete, Roche) and 400 units/ml of SUPERasine (Ambion), and incubated for 30 min on ice with occasional vortexing. Lysates were sedimented at 3,000×g for 10 min at 4° C. to pellet nuclei and cell debris. Supernatants were sedimented at 12,000×g for 20 min at 4° C. to pellet mitochondria. […] RNA content of fractions was ascertained by using the ratio of absorbance at 260:280 nm. […] RNA from each fraction was quantified by spectrophotometry and 40 ng was converted into cDNA by using the Sensiscript reverse transcription kit (Qiagen, Valencia, Calif.). Quantitative real-time PCR was carried out in triplicate by using the QuantiTect SYBR green real-time PCR Kit (Qiagen) in an Opticon thermal cycler (MJ Research, Waltham, Mass.). […] Obtained real-time PCR profiles were analyzed by using Opticon software (MJ Research).

[2] = tested on: polysomal loading of eIF4E-sensitive mRNAs; test: polysomal loading of mRNAs, ribosome purification and quantitative RT-PCR; type: cell-based, mouse
Method: Cell pellets (500 mg) were homogenized in 1 ml of ice cold lysis buffer (20 mM Hepes/10 mM magnesium acetate/100 mM potassium acetate, pH 7.5) supplemented with protease inhibitors (EDTA-free Complete, Roche) and 400 units/ml of SUPERasine (Ambion), and incubated for 30 min on ice with occasional vortexing. Lysates were sedimented at 3,000×g for 10 min at 4° C. to pellet nuclei and cell debris. Supernatants were sedimented at 12,000×g for 20 min at 4° C. to pellet mitochondria. Cleared supernatants were then sedimented at 50,000 rpm (SW 50.1 rotor, Beckman) for 50 min at 4° C. to pellet ribosomes. Ribosomal pellets were resuspended in 200 μl of ice-cold lysis buffer and layered on top of 10-40% sucrose gradient buffered with the lysis buffer, and centrifuged at 50,000 rpm for 80 min at 4° C. RNA content of fractions was ascertained by using the ratio of absorbance at 260:280 nm. […] RNA from each fraction was quantified by spectrophotometry and 40 ng was converted into cDNA by using the Sensiscript reverse transcription kit (Qiagen, Valencia, Calif.). Quantitative real-time PCR was carried out in triplicate by using the QuantiTect SYBR green real-time PCR Kit (Qiagen) in an Opticon thermal cycler (MJ Research, Waltham, Mass.). […] Obtained real-time PCR profiles were analyzed by using Opticon software (MJ Research).

AML-M5 progenitor cells = test: clonogenic assay, primary CD34+ progenitors; type: cell-based; details: Homo sapiens, 336 h; 14 days; read-out: apparent IC50 colony formation
Source text: Acute myelogenous leukemia (AML) M1, M5, and normal bone marrow specimens were isolated from patients and processed as described. Primary AML cells were obtained from peripheral blood of patients at the Markey Cancer Center, University of Kentucky Medical Center (Lexington, Ky.). Normal bone marrow was obtained as waste material after pathological analysis, surgical marrow harvest, or from the National Disease Research Interchange (Philadelphia). All tissues were obtained with the approval of the Institutional Review Board and appropriate informed consent. Frozen CD34^+ progenitor cells were thawed in Iscove's modified Dulbecco's (IMD) medium supplemented with 10% (vol/vol) FBS. […] Colonies with >20 cells were counted manually and experiments were repeated four times.

Akt = Akt phosphorylation; type: cell-based; details: FIGS. 35 and 36
[3] = tested on: 4E mediated apoptotic rescue; test: 4E mediated apoptotic rescue; type: cell-based; details: FIG. 37
FaDu cells = test: Western blot of FaDu cells treated in culture; type: cell-based, human; details: 48 hours
Method: FaDu cells were grown in culture as described previously and treated with Ribavirin for 48 hours prior to preparation of protein extracts and western blot analysis.

[4] = cited from earlier work

## NC(=O)c1ncn([C@@H]2O[C@H](CO)[C@@H](O)[C@H]2O)n1 [Ribavirin, 1-β-D-ribofuranosyl-1,2,4-triazole-3-carboxamide]
[1]; 0.1 μM, quantitative real-time PCR
  nuclear retention of cyclin D1 mRNA: 2 fold
[1]; Mus musculus, NIH3T3, NIH 3T3, read-out: apparent EC50 inhibition of nucleocytoplasmic cyclin D1 mRNA transport
  EC50: ~1000 nM
[1]; NIH 3T3
  concentration of nearly complete nuclear retention of cyclin D1 mRNA: 100 µM
[1]; at 100 uM
  nucleocytoplasmic transport of B-actin and VEGF mRNAs: not affected
[2]
  decrease of polysomal loading of VEGF and ODC mRNAs: > 1,000 fold
[2]; 1 μM
  polysomal loading of cyclin D1 mRNA: no significant effect
AML-M5 progenitor cells
  IC50: ~1000 nM
Akt
  effect on Akt phosphorylation: inhibits
[3]
  effect on 4E mediated apoptotic rescue: blocks
FaDu cells
  Actin and eIF4E protein levels: remain unchanged
  protein level of NBS1, Cyclin D1 and ODC: decreased
[4]; anhydrous ethanol
  solubility in anhydrous ethanol: sparingly soluble
[4]; water
  solubility in water: freely soluble
